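Tested at 5 concentrations; 48 h exposure; 96-well plates; endpoints linearly interpolated, else capped at highest concentration. GI50 = concentration required for 50% inhibition of growth. TGI denotes the concentration required for complete inhibition of growth.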
What was measured:
Assay in all cases: DTP human tumour cell line panel, 48 h
786-0 renal = tested on: 786-0 renal
A498 renal = tested on: A498 renal
A549 NSCLC = tested on: A549 NSCLC
ACHN renal = tested on: ACHN renal
BT-549 breast = tested on: BT-549 breast
CAKI-1 renal = tested on: CAKI-1 renal
CCRF-CEM leukemia = tested on: CCRF-CEM leukemia
COLO 205 colon = tested on: COLO 205 colon
DU-145 prostate = tested on: DU-145 prostate
EKVX NSCLC = tested on: EKVX NSCLC
HCC-2998 colon = tested on: HCC-2998 colon
HCT-116 colon = tested on: HCT-116 colon
HCT-15 colon = tested on: HCT-15 colon
HL-60(TB) leukemia = tested on: HL-60(TB) leukemia
HOP-62 NSCLC = tested on: HOP-62 NSCLC
HOP-92 NSCLC = tested on: HOP-92 NSCLC
HS 578T breast = tested on: HS 578T breast
HT29 colon = tested on: HT29 colon
IGROV1 ovarian = tested on: IGROV1 ovarian
K-562 leukemia = tested on: K-562 leukemia
KM12 colon = tested on: KM12 colon
LOX IMVI melanoma = tested on: LOX IMVI melanoma
M14 melanoma = tested on: M14 melanoma
MALME-3M melanoma = tested on: MALME-3M melanoma
MCF7 breast = tested on: MCF7 breast
MDA-MB-231 breast = tested on: MDA-MB-231 breast
MDA-MB-435 = tested on: MDA-MB-435
MDA-MB-468 breast = tested on: MDA-MB-468 breast
MOLT-4 leukemia = tested on: MOLT-4 leukemia
NCI-H226 lung = tested on: NCI-H226 lung
NCI-H23 lung = tested on: NCI-H23 lung
NCI-H460 lung = tested on: NCI-H460 lung
NCI-H522 lung = tested on: NCI-H522 lung
NCI/ADR-RES ovarian = tested on: NCI/ADR-RES ovarian
OVCAR-3 ovarian = tested on: OVCAR-3 ovarian
OVCAR-4 ovarian = tested on: OVCAR-4 ovarian
OVCAR-5 ovarian = tested on: OVCAR-5 ovarian
OVCAR-8 ovarian = tested on: OVCAR-8 ovarian
PC-3 prostate = tested on: PC-3 prostate
RPMI-8226 leukemia = tested on: RPMI-8226 leukemia
RXF 393 renal = tested on: RXF 393 renal
SF-268 CNS = tested on: SF-268 CNS
SF-295 CNS = tested on: SF-295 CNS
SF-539 CNS = tested on: SF-539 CNS
SK-MEL-2 melanoma = tested on: SK-MEL-2 melanoma
SK-MEL-28 melanoma = tested on: SK-MEL-28 melanoma
SK-MEL-5 melanoma = tested on: SK-MEL-5 melanoma
SK-OV-3 ovarian = tested on: SK-OV-3 ovarian
SN12C renal = tested on: SN12C renal
SNB-19 CNS = tested on: SNB-19 CNS
SNB-75 CNS = tested on: SNB-75 CNS
SR leukemia = tested on: SR leukemia
SW-620 colon = tested on: SW-620 colon
T-47D breast = tested on: T-47D breast
TK-10 renal = tested on: TK-10 renal
U251 CNS = tested on: U251 CNS
UACC-257 melanoma = tested on: UACC-257 melanoma
UACC-62 melanoma = tested on: UACC-62 melanoma
UO-31 renal = tested on: UO-31 renal

For Cc1ccc(-c2nc3ccc(C(=O)N=Nc4c(O)[nH]c5ccc(Cl)cc45)cc3[nH]2)cc1, the GI50 (786-0 renal) was 20.9 µM, the TGI (786-0 renal) was 65.4 µM and the GI50 (A498 renal) was over 100 µM. The TGI (A498 renal) was over 100 µM, the GI50 (A549 NSCLC) was 56.8 µM and the TGI (A549 NSCLC) was over 100 µM. For the same compound, the GI50 (ACHN renal) was over 100 µM, the TGI (ACHN renal) was over 100 µM and the GI50 (BT-549 breast) was 96.3 µM. For the same compound, the TGI (BT-549 breast) was over 100 µM, the GI50 (CAKI-1 renal) was over 100 µM and the TGI (CAKI-1 renal) was over 100 µM. For the same compound, the GI50 (CCRF-CEM leukemia) was 5.77 µM, the TGI (CCRF-CEM leukemia) was over 100 µM and the GI50 (COLO 205 colon) was 24.6 µM. For the same compound, the TGI (COLO 205 colon) was over 100 µM, the GI50 (DU-145 prostate) was 5.57 µM and the TGI (DU-145 prostate) was 88.4 µM. The GI50 (EKVX NSCLC) was over 100 µM, the TGI (EKVX NSCLC) was over 100 µM and the GI50 (HCC-2998 colon) was 18.7 µM. It also gave a TGI (HCC-2998 colon) of over 100 µM, a GI50 (HCT-116 colon) of 16 µM and a TGI (HCT-116 colon) of over 100 µM. For the same compound, the GI50 (HCT-15 colon) was over 100 µM, the TGI (HCT-15 colon) was over 100 µM and the GI50 (HL-60(TB) leukemia) was over 100 µM. For the same compound, the TGI (HL-60(TB) leukemia) was over 100 µM, the GI50 (HOP-62 NSCLC) was 78.4 µM and the TGI (HOP-62 NSCLC) was over 100 µM. It also gave a GI50 (HOP-92 NSCLC) of 72.6 µM, a TGI (HOP-92 NSCLC) of over 100 µM and a GI50 (HS 578T breast) of 31.2 µM. It also gave a TGI (HS 578T breast) of over 100 µM, a GI50 (HT29 colon) of 17.6 µM and a TGI (HT29 colon) of over 100 µM. It also gave a GI50 (IGROV1 ovarian) of 81.9 µM, a TGI (IGROV1 ovarian) of over 100 µM and a GI50 (K-562 leukemia) of 8.85 µM. The TGI (K-562 leukemia) was over 100 µM, the GI50 (KM12 colon) was over 100 µM and the TGI (KM12 colon) was over 100 µM. The GI50 (LOX IMVI melanoma) was 4.81 µM, the TGI (LOX IMVI melanoma) was 18.9 µM and the GI50 (M14 melanoma) was 57.8 µM. For the same compound, the TGI (M14 melanoma) was over 100 µM, the GI50 (MALME-3M melanoma) was 15.6 µM and the TGI (MALME-3M melanoma) was 43.8 µM. For the same compound, the GI50 (MCF7 breast) was 5.03 µM, the TGI (MCF7 breast) was 47.4 µM and the GI50 (MDA-MB-231 breast) was 10.7 µM. For the same compound, the TGI (MDA-MB-231 breast) was 40.3 µM, the GI50 (MDA-MB-435) was 10.1 µM and the TGI (MDA-MB-435) was 94.9 µM. For the same compound, the GI50 (MDA-MB-468 breast) was 5.28 µM, the TGI (MDA-MB-468 breast) was 21.8 µM and the GI50 (MOLT-4 leukemia) was 4.12 µM. For the same compound, the TGI (MOLT-4 leukemia) was over 100 µM, the GI50 (NCI-H226 lung) was over 100 µM and the TGI (NCI-H226 lung) was over 100 µM. It also gave a GI50 (NCI-H23 lung) of 6.63 µM, a TGI (NCI-H23 lung) of 28.9 µM and a GI50 (NCI-H460 lung) of 8.67 µM. It also gave a TGI (NCI-H460 lung) of over 100 µM, a GI50 (NCI-H522 lung) of 4.3 µM and a TGI (NCI-H522 lung) of 21.3 µM. The GI50 (NCI/ADR-RES ovarian) was over 100 µM, the TGI (NCI/ADR-RES ovarian) was over 100 µM and the GI50 (OVCAR-3 ovarian) was 7.29 µM. For the same compound, the TGI (OVCAR-3 ovarian) was 74.4 µM, the GI50 (OVCAR-4 ovarian) was 15 µM and the TGI (OVCAR-4 ovarian) was 51.3 µM. It also gave a GI50 (OVCAR-5 ovarian) of 25.5 µM, a TGI (OVCAR-5 ovarian) of over 100 µM and a GI50 (OVCAR-8 ovarian) of over 100 µM. It also gave a TGI (OVCAR-8 ovarian) of over 100 µM, a GI50 (PC-3 prostate) of 13.4 µM and a TGI (PC-3 prostate) of 39.2 µM. It also gave a GI50 (RPMI-8226 leukemia) of 67.7 µM, a TGI (RPMI-8226 leukemia) of over 100 µM and a GI50 (RXF 393 renal) of over 100 µM. For the same compound, the TGI (RXF 393 renal) was over 100 µM, the GI50 (SF-268 CNS) was 24.2 µM and the TGI (SF-268 CNS) was over 100 µM. The GI50 (SF-295 CNS) was over 100 µM, the TGI (SF-295 CNS) was over 100 µM and the GI50 (SF-539 CNS) was over 100 µM. It also gave a TGI (SF-539 CNS) of over 100 µM, a GI50 (SK-MEL-2 melanoma) of over 100 µM and a TGI (SK-MEL-2 melanoma) of over 100 µM. The GI50 (SK-MEL-28 melanoma) was 36.1 µM, the TGI (SK-MEL-28 melanoma) was over 100 µM and the GI50 (SK-MEL-5 melanoma) was over 100 µM. For the same compound, the TGI (SK-MEL-5 melanoma) was over 100 µM, the GI50 (SK-OV-3 ovarian) was over 100 µM and the TGI (SK-OV-3 ovarian) was over 100 µM. The GI50 (SN12C renal) was 38.9 µM, the TGI (SN12C renal) was over 100 µM and the GI50 (SNB-19 CNS) was 30.1 µM. It also gave a TGI (SNB-19 CNS) of over 100 µM, a GI50 (SNB-75 CNS) of 66.5 µM and a TGI (SNB-75 CNS) of over 100 µM. The GI50 (SR leukemia) was over 100 µM, the TGI (SR leukemia) was over 100 µM and the GI50 (SW-620 colon) was 3.3 µM. The TGI (SW-620 colon) was 26 µM, the GI50 (T-47D breast) was 44.5 µM and the TGI (T-47D breast) was over 100 µM. It also gave a GI50 (TK-10 renal) of over 100 µM, a TGI (TK-10 renal) of over 100 µM and a GI50 (U251 CNS) of 25.3 µM. The TGI (U251 CNS) was over 100 µM, the GI50 (UACC-257 melanoma) was over 100 µM and the TGI (UACC-257 melanoma) was over 100 µM. For the same compound, the GI50 (UACC-62 melanoma) was over 100 µM, the TGI (UACC-62 melanoma) was over 100 µM and the GI50 (UO-31 renal) was over 100 µM. It also gave a TGI (UO-31 renal) of over 100 µM.
